Data taken from US20090028925A1, “Novel Phosphinic Acid-Containing Thyromimetics” (priority 2005, published 2009).

What was measured:
[1] = ZDF, rat, in vivo, po, 28 days
Method: Compound 18 was administered at doses up to 5 mg/kg/d. Compound cis-13-1 was administered at doses up to 50 mg/kg/d. We reasoned that the ZDF rat, as a metabolically challenged animal model, would be more sensitive to the potential adverse cardiac effects of thyromimetics than a normal, cholesterol-fed rat. At sacrifice, heart rate, and the first derivative of left ventricular pressure (LV dP/dt) were measured with a Millar catheter inserted into the left ventricle.

serum cholesterol = assay: Subacute study in cholesterol fed rats, PO: serum cholesterol; format: in vivo; conditions: PO once a day for seven days
Method: (§1) Methods: […] Compound 13-1-cis and Compound 18 were administered PO once a day for seven days. Serum TSH is measured using an enzyme immunoassay (EIA) kit designed for rat TSH (Amersham Pharmacia Biotech, Arlington Heights, Ill.). Expression levels of liver genes (e.g., the LDL-receptor, apoB, cpt-1, spot14 and apoAI) and heart genes ([…]2, HCN2, Kv1.5, MHCα, MHCβ, Alpha1c) are quantified by Northern blot analysis or by RT-PCR. For Northern analyses, RNA is isolated from liver tissue by a guanidinium thiocyanate method, and total RNA is obtained using an RNeasy column (Quiagen). mRNA is separated on a 1% agarose gel and transferred to a nylon membrane. Oligonucleotides specific for the complementary gene sequences are used to make ^32P-labeled probes (Multiprime DNA labeling systems, Amersham Pharmacia Biotech). Following hybridization of the probes to the nylon membranes, radioactivity is assessed on a blue film (Eastman Kodak Co), and the resulting image quantified using the appropriate software. RT-PCR is performed using an iCycler instrument (Biorad) using appropriate primers by means of standard methodology [[…] et al. (2000) Life Sciences 66: 1683-94]. GPDH activity in liver and heart are measured as described in Example B. […] Alternatively, expression levels of the corresponding genes are determined by Northern blot analysis or RT-PCR as described above.

[2] = tested on: thyroid stimulating hormone (TSH); assay: Circulating TSH in rats (cholesterol-fed, ZDF); format: in vivo
Method: Methods: mGPDH activity was analyzed in isolated mitochondria using 2-(4-iodophenyl)-3-(4-nitrophenyl)-5-phenyl tetrazolium chloride as the terminal electron acceptor (Gardner R S, Analytical Biochemistry 59:272 (1974)). Commercially available GPDH was used in each assay as a standard (Sigma, St. Louis, Mo.). Changes in levels of mRNA for liver and heart genes are analyzed using reverse transcriptase followed by real-time PCR analysis. The analysis is performed using an iCycler instrument (Biorad) and appropriate primers by means of standard methodology [e.g., Schwab D A et al. (2000) Life Sciences 66: 1683-94]. The amounts of mRNA are normalized to an internal control, typically, cyclophilin. Serum TSH is measured using an enzyme immunoassay (EIA) kit designed for rat TSH (Amersham Pharmacia Biotech, Arlington Heights, Ill.).
Another concern with synthetic thyromimetics is the suppression of the endogenous thyroid axis. Thyroid homeostasis is maintained by the action of thyroid releasing hormone (TRH) and thyroid stimulating hormone (TSH). […] Although this particular side effect has been noted, it has typically been treated with less concern than the cardiac safety issues. […] Therefore previous investigators have measured TSH levels when testing synthetic thyromimetics and have used a 30% decrease of TSH as the denominator in their therapeutic index calculations. […] Therefore, both compounds suppress TSH as doses lower than that required to decrease circulating cholesterol. […] However, 0.2 mg/kg/d of Compound 18 in 28 day treated ZDF rats, decreased TSH levels greater than 90%.

[3] = Cardiovascular activity in the Sprague Dawley rat (HR, LV dP/dt, aortic pressure, heart weight); format: in vivo; conditions: SD rats, 1 mg/kg p.o., 7 days
Source text: Method: […] The control group (n=6) was given vehicle only. […] On the 7th day after the start of dosing, animals were anesthetized with Isofluorane and the left ventricle cannulated with a high fidelity catheter tip transducer via the right carotid artery. Left ventricular pressure, its first derivative (LVdP/dt), lead I ECG, and heart rate (HR) triggered off the ECG waveform, were digitally recorded. LV dP/dt is a well accepted measure of ionotropic state. Systolic and diastolic aortic pressures were measured by retracting the catheter into the proximal aorta.

[4] = cholesterol-fed rat; cited from earlier work
[5] = target: T1, human thyroid hormone receptors TRα1 (Homo sapiens, UniProt P10827); assay: Receptor binding to TRα1 (gel filtration and scintillation proximity assay, labeled T3); conditions: SPA data; read-out: Ki TRα
T1 construct: made in house; host or cells: Sf9 insect cells (baculovirus)
T1 sequence (P10827 1-410 isoform P10827-2): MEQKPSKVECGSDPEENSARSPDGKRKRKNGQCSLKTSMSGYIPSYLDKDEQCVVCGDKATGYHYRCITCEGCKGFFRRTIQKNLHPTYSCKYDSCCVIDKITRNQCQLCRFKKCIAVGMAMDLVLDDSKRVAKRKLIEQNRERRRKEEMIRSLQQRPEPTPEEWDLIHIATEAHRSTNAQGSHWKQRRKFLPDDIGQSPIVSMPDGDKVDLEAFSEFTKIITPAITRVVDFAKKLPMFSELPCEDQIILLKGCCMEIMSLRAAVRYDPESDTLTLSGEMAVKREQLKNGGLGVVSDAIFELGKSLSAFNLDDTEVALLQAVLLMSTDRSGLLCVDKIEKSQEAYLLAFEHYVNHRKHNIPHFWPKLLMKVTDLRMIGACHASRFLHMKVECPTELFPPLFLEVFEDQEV
T1 sequence (P19793 1-462 partner): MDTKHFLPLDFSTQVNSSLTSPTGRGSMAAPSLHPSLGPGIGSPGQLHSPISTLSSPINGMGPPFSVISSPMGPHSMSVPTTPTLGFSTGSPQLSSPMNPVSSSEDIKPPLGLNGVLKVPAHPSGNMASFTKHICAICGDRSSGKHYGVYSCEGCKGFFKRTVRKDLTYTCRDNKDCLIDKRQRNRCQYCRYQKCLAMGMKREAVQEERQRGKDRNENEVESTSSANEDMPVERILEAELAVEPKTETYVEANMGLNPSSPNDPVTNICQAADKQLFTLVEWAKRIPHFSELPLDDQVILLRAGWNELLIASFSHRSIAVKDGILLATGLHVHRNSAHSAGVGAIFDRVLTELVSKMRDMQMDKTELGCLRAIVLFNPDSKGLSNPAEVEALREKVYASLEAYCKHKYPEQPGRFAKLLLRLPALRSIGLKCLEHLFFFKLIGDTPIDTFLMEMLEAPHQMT

[6] = target: T2, human thyroid hormone receptors TRβ1 (Homo sapiens, UniProt P10828); assay: Receptor binding to TRβ1 (gel filtration and scintillation proximity assay, labeled T3); conditions: SPA data; read-out: Ki TRβ
T2 construct: made in house; host or cells: Sf9 insect cells (baculovirus)
T2 sequence (P10828 1-461): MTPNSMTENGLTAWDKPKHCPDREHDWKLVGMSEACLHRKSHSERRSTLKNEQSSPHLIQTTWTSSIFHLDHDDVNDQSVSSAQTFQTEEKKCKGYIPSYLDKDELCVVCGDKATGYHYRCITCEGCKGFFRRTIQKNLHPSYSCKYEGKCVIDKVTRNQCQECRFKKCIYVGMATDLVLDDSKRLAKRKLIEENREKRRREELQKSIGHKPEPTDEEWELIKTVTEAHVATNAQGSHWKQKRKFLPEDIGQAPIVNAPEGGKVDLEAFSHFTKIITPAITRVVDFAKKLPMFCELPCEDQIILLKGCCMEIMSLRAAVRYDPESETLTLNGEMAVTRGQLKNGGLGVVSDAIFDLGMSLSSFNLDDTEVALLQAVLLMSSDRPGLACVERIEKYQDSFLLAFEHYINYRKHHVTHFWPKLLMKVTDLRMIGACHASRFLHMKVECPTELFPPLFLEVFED
T2 sequence (P19793 1-462 partner): T1 sequence (P19793 1-462 partner)

[7] = Prodrug activation in rat liver microsomes; format: in vitro ADME
Source text: (§2) The purpose of these studies was to determine the kinetics of activation of prodrugs of thyromimetics in microsomal preparations. Microsomes contain the P450 enzyme that is required for the activation of many of the prodrugs prepared. The Km, Vmax, and intrinsic clearance values determined are measures of prodrug affinity for the microsomal enzymes, the rate at which the prodrug is activated, and the catalytic efficiency with which the prodrug is activated, respectively.
(§3) Methods: Activation of prodrugs by dexamethasone treated rat hepatocyte microsomes. Microsomes were isolated by standard differential centrifugation methods from dexamethasone-treated rats. The treatment is to increase cytochrome P450-3A (CYP3A4) activity. Induction of CYP3A4 was confirmed by an increase in testosterone hydroxylation.
(§4) Various concentrations of HepDirect™ Compound 7 were incubated with rat hepatocytes microsomes. Compound 7 formation was analyzed by HPLC using UV-Vis detection. Kinetic parameters (Vmax and Km) were calculated from the transformed data and the intrinsic clearance calculated from the kinetic parameters.

[8] = tested on: CYP3A (cytochrome P450-3A (CYP3A4)); assay: Prodrug activation in rat liver microsomes; format: in vitro ADME; conditions: liver microsomes from dexamethasone-treated rats; dexamethasone treated rat microsomes, formation of Compound 7
Source text: as §2, §3, §4

[9] = Subacute study in cholesterol fed rats, PO: heart weight; format: in vivo; conditions: PO seven days, any dose tested
Method: as §1

plasma cholesterol = assay: Cholesterol lowering in hypercholesterolemic rats; format: in vivo; conditions: hypercholesterolemic rats, 0.5 mg/kg/d orally
[10] = in the monkey; cited from earlier work
[11] = effects on cholesterol and TSH at the same or not pharmacologically different doses; cited from earlier work
[12] = rodent models and monkeys; cited from earlier work

Structure (SMILES)	TI for LV dP/dt (increase of 25%) [1]	therapeutic index with respect to heart rate (ED15 HR/ED50 cholesterol) [1]	doses that significantly decreased serum cholesterol (serum cholesterol) [mg/kg/day]	decrease of TSH levels ([2]; ZDF rats, 0.2 mg/kg/d, 28 day)	therapeutic index of TSH levels (30% decrease of TSH) ([2]; cholesterol-fed rats, treated for 7 days)	HR, LV dP/dt, and systolic aortic pressure [3]	Heart weight and heart weight normalized to body weight [3]	therapeutic index (TI) with respect to heart rate increases (ED15 HR/ED50 cholesterol) [4]	Ki [5] [nM]	Ki [6] [nM]	Vmax ([7]; dexamethasone treated rat microsomes, formation of Compound 7) [pmol/min/mg]	microsomal CLint ([7]; rat, liver microsomes from dexamethasone-treated rats, intrinsic clearance calculated from the kinetic parameters) [µL/min/mg]	Km [8] [µM]	cardiac hypertrophy [9]	cholesterol lowering (plasma cholesterol)	Lp(a) levels [10]	TSH levels [11]	cholesterol levels [11]	weight loss in animals [12]
CC(C)c1cc(Oc2c(Cl)cc(CC(=O)O)cc2Cl)ccc1O [Compound 18, 3,5-dichloro-4-[4′-hydroxy-3′-iso-propylphenoxy]benzeneacetic acid, reference compound]	0.15	0.4	1	greater than 90%	0.4	marked and statistically significant increases	significantly increased	40											
Cc1cc(OC[P@@]2(=O)OCC[C@@H](c3cccc(Cl)c3)O2)cc(C)c1Cc1ccc(O)c(C(C)C)c1 [Compound 13-1-cis, Cis(S)-2-[(3,5-Dimethyl-4-(4′-hydroxy-3′-iso-propylbenzyl)phenoxy)methyl]-4-(3-Chlorophenyl)-2-oxo-2λ^5-[1,3,2]-dioxaphosphinane]			0.6 to 50						2580	1980	1746	56	31	No significant undesirable cardiac hypertrophy was observed	demonstrated a significant lowering of cholesterol				
CC(C)c1cc(Oc2c(Cl)cc(CC(=O)O)cc2Cl)ccc1O [3,5-dichloro-4-[4-hydroxy-3-(1-methylethyl)phenoxy]benzeneacetic acid]																decrease Lp(a) levels	dose-dependently lower	dose-dependently lower	weight loss
